In EP0424901A1, “Dihydropyridine derivatives and pharmaceutical compositions” (THE GREEN CROSS CORPORATION, priority 1989, dated 1991):
Structures can show the parent of a compound that is named as a salt. Where two headings read alike, the source gives them in different places.

System: male Wistar rats
Test: Blood pressure in anesthetized rats after intravenous bolus administration
Assay type: in vivo
Conditions: tail vein bolus; for ED30: Rattus norvegicus, iv; for DBP % change: diastolic blood pressure relative to that before administration (=100%); for DBP % change / SBP % change: mean ± SE, n=4; for SBP % change: systolic blood pressure relative to that before administration (=100%)
Protocol: The subject rats anesthetized with pentobarbital-Na (50 mg/kg, i.p.) were fixed at the dorsal position, and the blood pressure was successively recorded on a polygraph via polyethylene catheter inserted in left common carotid artery and piezoelectric transducer. The drug was bolus- administered at a dose of 1 ml/kg through a wing needle dwelled in tail vein.
As the subject animal, male Wistar rats (about 300 g body weight, 4 rats per group) were used.
The test drug was prepared by dissolving 10 mg thereof in 0.3 ml of ethanol and 0.1 ml of Tween 80 and diluting with saline.

[1] = estimated dose necessary for 30% reduction of diastolic blood pressure, read-out: DBP ED30
[2] = estimated dose necessary for 30% reduction of systolic blood pressure, read-out: SBP ED30

SMILES	ED30 [1]	ED30 [2]	DBP % change (dose 30 µg/kg)	DBP % change (dose 100 µg/kg)	DBP % change (dose 300 µg/kg)	SBP % change (dose 30 µg/kg)	SBP % change (dose 100 µg/kg)	SBP % change (dose 300 µg/kg)	DBP % change (dose 1000 µg/kg)	SBP % change (dose 1000 µg/kg)	DBP % change (dose 10 µg/kg)	SBP % change (dose 10 µg/kg)
COC(=O)C1=C(C)NC(C)=C(C(=O)OCCc2ccc(N3CCN(C(c4ccccc4)c4ccccc4)CC3)cc2)C1c1cccc([N+](=O)[O-])c1 (racemic) [compound 3, reference compound]	0.046 mg/kg	0.63 mg/kg	75±5%	61±2%	53±3%	79±1%	76±4%	72±3%	–	–	–	–
COC(=O)C1=C(C)NC(C)=C(C(=O)OCCc2ccc(N3CCN(C(c4ccccc4)c4ccccc4)CC3)cc2)[C@@H]1c1cccc([N+](=O)[O-])c1 [(R)-(-)-compound 3, (R)-(-)-4-(4-benzhydrylpiperadino)phenetyl methyl 1,4-dihydro-2,6-dimethyl-4-(3-nitrophenyl)-3,5-pyridinedicarboxylate hydrochloride]	–	–	–	94±1%	–	–	93±2%	–	91±2%	93±3%	–	–
COC(=O)C1=C(C)NC(C)=C(C(=O)OCCc2ccc(N3CCN(C(c4ccccc4)c4ccccc4)CC3)cc2)[C@H]1c1cccc([N+](=O)[O-])c1 [(S)-(+)-compound 3, (S)-(+)-4-(4-benzhydrylpiperadino)phenetyl methyl 1,4-dihydro-2,6-dimethyl-4-(3-nitrophenyl)-3,5-pyridinedicarboxylate hydrochloride]	0.037 mg/kg	0.16 mg/kg	74±2%	55±4%	–	86±3%	71±5%	–	–	–	89±1%	86±3%
